# Literature values in patent publication US20210298296A1, “METHOD OF PREVENTING MICROBES IN DISPOSABLE PRODUCTS” (priority 2020, published 2021).
# Tests used:
# [1] = system: influenza virus subtype H1N1
# [2] = system: S. aureus, Staphylococcus epidermidis, Propionibacterium acnes
# [3] = system: Staphylococcus aureus; details: in vitro
# [4] = system: Leishmania major
# [5] = system: human melanoma cells
# [6] = system: cells activated by monocytes; details: water-soluble components of Tea Tree Oil
# [7] = system: Trypanosoma brucei
# [8] = system: acne vulgaris (P. acnes)
# [9] = system: nail fungus (onychomycosis); details: 117 patients; six months, twice-daily topical 1% clotrimazole or 100% Tea Tree Oil
# [10] = system: tinea pedis
# [11] = 104 patients, 10% w/w Tea Tree Oil cream vs 1% tolnaftate vs placebo
molecule,measurement,setting,value
"CC1=CCC(O)(C(C)C)CC1 (stereo not shown) [Terpinen-4-ol, 4-methyl-1-(1-methylethyl)-3-cyclohexen-1-ol]",antiviral activity against influenza virus subtype H1N1,[1],principally attributed to Terpinen-4-ol
same,inhibitory effect on all three organisms,[2],inhibitory
same,"activity against Staphylococcus aureus, Terpinen-4-ol compared with whole Tea Tree Oil",[3],equally effective
same,contribution to the antiprotozoal activity of Tea Tree Oil,[4],contributed significantly to this activity
same,growth of human melanoma cells,[5],impair the growth of human melanoma cells
same,inflammatory response,[6],suppress the inflammatory response
same,contribution to the antiprotozoal activity of Tea Tree Oil,[7],contributed significantly to this activity
CC1=CCC2CC1C2(C)C (stereo not drawn) [alpha-pinene],inhibitory effect on all three organisms,[2],inhibitory
CC1=CCC(C(C)(C)O)CC1 (stereo not drawn) [alpha-terpineol],inhibitory effect on all three organisms,[2],inhibitory
"O=C(OOC(=O)c1ccccc1)c1ccccc1 [benzoyl peroxide, reference compound]",number of inflamed and non-inflamed lesions,"[8]; 124 patients, 5% Tea Tree Oil gel vs 5% benzoyl peroxide lotion",significantly reduced the number of inflamed and non-inflamed lesions
Clc1ccccc1C(c1ccccc1)(c1ccccc1)n1ccnc1 [clotrimazole],clinical resolution of the infection,[9],clinically documented resolution of the infection
same,fungus in cultures,[9],decrease in fungus in cultures
Cc1cccc(N(C)C(=S)Oc2ccc3ccccc3c2)c1 [tolnaftate],conversion to negative culture at the end of therapy,[10]; [11],showed conversion to negative culture
same,improvements in clinical symptoms,[10]; [11],significant improvements in clinical symptoms
same,cure rate for tinea pedis,"[10]; human, in vivo",80%
Tea Tree Oil,"adverse side effects (skin scaling, dryness, irritation)","[8]; human, in vivo",fewer adverse side effects
